# Test results as given in patent publication US9012166B2, “Method for assaying histone methylation enzyme activity” (Kyushu Institute of Technology, priority 2010, dated 2015).
# Molecular target: T1, G9a (GST-mG9a) (Mus musculus, UniProt Q9Z148)
# T1 sequence (Q9Z148 1-1263): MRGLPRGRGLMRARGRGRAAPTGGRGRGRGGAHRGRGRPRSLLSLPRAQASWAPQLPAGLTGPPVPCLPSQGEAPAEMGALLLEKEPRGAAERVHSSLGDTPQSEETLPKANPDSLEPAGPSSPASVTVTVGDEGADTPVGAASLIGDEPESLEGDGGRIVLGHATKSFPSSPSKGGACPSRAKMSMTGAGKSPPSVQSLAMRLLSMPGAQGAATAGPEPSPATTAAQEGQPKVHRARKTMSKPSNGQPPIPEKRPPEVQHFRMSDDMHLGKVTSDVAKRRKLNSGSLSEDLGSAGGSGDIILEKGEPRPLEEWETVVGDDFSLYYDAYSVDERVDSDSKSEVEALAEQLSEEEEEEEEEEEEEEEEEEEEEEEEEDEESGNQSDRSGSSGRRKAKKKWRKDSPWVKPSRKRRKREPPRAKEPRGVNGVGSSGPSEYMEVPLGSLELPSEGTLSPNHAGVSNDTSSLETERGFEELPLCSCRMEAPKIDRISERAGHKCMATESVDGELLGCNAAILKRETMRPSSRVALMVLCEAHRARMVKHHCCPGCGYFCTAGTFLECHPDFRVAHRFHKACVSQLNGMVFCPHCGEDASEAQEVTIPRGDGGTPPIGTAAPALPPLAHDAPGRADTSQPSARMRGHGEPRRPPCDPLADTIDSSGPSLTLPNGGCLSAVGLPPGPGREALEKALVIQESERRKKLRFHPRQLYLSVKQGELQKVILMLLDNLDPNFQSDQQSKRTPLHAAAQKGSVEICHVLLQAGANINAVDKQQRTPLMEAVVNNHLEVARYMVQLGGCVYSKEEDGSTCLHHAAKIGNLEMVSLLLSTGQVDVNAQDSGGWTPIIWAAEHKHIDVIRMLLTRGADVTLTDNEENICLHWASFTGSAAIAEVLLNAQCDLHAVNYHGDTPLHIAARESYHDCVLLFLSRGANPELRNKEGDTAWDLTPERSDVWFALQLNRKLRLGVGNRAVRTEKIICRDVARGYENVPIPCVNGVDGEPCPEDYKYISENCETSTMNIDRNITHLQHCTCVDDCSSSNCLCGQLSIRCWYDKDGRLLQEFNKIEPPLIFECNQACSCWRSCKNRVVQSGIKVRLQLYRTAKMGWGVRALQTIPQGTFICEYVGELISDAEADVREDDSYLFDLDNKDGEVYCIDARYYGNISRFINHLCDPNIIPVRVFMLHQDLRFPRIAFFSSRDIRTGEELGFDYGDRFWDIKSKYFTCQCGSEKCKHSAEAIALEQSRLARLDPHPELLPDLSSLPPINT
# Assay: Assay for measuring histone methyltransferase activity using peptidyl MCA, inhibitor evaluation with G9a
# Assay type: biochemical
# Settings: IC50 for G9a, Ac-histone H3 (1-9)-MCA
# Method: When G9a was adopted as a histone methyltransferase, the following method was used. 10 μL of 2×HMT buffer (100 mM Tris-HCl (pH 8.5), 20 mM MgCl2, 40 mM KCl, 20 mM 2-mercaptoethanol, 500 mM sucrose), 0.4 μL of a BSA solution (150 μg/mL), 2 μL of GST-mG9a (0, 0.5 μg/μL), 1 μL of gliotoxin (any of various concentrations) and 2.6 μL of distilled water were mixed and then incubated at room temperature for 1 hour. Then, 2 μL of SAM (10 mM) and 2 μL of a peptidyl MCA (Ac-histone H3 (1-9)-MCA) solution (0.6 mM) were added thereto, which was then incubated at 37° C. for 1 hour. Thereafter, 30 μL of a trypsin solution (20 mg/mL) was added thereto, followed by incubation at 37° C. for 15 minutes. Then, the fluorescence intensity of the solution was measured at an excitation wavelength (λex) of 390 nm and a fluorescence wavelength (λem) of 460 nm. The final concentration of GST-mG9a during the measurement of fluorescence intensity was 0.05 μg/μL. The results of the assay for measuring histone methyltransferase activity are shown in the middle panel of FIG. 18.
# The rate of the inhibition of methylation by gliotoxin was calculated from the results in the left panel and the middle panel of FIG. 18. Specifically, the value (%) was calculated which was obtained by dividing “a value obtained by subtracting “the fluorescence intensity of AMC when peptidase was added but gliotoxin was not added” from “the fluorescence intensity of AMC when both peptidase and gliotoxin were added”” by “a value obtained by subtracting “the fluorescence intensity of AMC when peptidase was added but gliotoxin was not added” from “the fluorescence intensity of AMC when no peptidase or gliotoxin was added”” and multiplying the resultant value by 100. The rate (%) of the inhibition of methylation by gliotoxin is shown in the right panel of FIG. 18.
# Specifically, the assay for measuring histone methyltransferase activity was carried out by the same method as the method using G9a […] in Example 8 except for using S-Adenosyl-L-homocysteine (SAH) in place of gliotoxin. SAH is a by-product of the methylation reaction and is known to inhibit histone methyltransferase in a negative feedback manner. […] The rate (%) of the inhibition of methylation by SAH was calculated from the results in the left panel of FIG. 19. The results are shown in the right panel of FIG. 19.
# When G9a was adopted as a histone methyltransferase, the following method was used. […] Then, the fluorescence intensity of the solution was measured at an excitation wavelength (λex) of 330 nm and a fluorescence wavelength (λem) of 380 nm or at an excitation wavelength (λex) of 390 nm and a fluorescence wavelength (λem) of 460 nm. The final concentration of GST-mG9a during the measurement of fluorescence intensity was 0 μg/μL or 0.05 μg/μL.
smiles,measurement,setting,value
CN1C(=O)[C@]23CC4=CC=C[C@H](O)[C@H]4N2C(=O)[C@@]1(CO)SS3 [gliotoxin],IC50,"Example 8, AMC fluorescence λex 390 nm/λem 460 nm, FIG. 18",2800 nM
same,IC50,"Example 14, AMC fluorescence λex 390 nm/λem 460 nm, left panel of FIG. 27",1800 nM
same,IC50,"Example 14, peptidyl MCA fluorescence λex 330 nm/λem 380 nm, right panel of FIG. 27",2800 nM
